Reference: US20250099369A1, “TOPICAL DELIVERY COMPOSITIONS COMPRISING NON-STEROIDAL ANTI-INFLAMMATORY DRUGS” (Andros Pharmaceuticals Co., LTD., priority 2023, published 2025)

Assay: physchem
Format: physicochemical
Details: 25 °C, aqueous buffer, thermodynamic from solid, Diclofenac Solubility
Method: In the aqueous solution containing 1% boric acid, add SPC (0%, 1%, 3%, 5%, 8%, 10%, 13%, 15%, 18%, 20%) and urea (0%, 5%, 10%, 20%, 30%, 40%, 50%) and stir until complete dissolution. A total of 70 sample solutions with different SPC and urea concentrations were obtained.
An excess of diclofenac sodium was added to each set of sample solutions and stirred overnight at 25° C. The sample solution was centrifuged at 12,000 rpm for 5 minutes, and a portion of the supernatant was diluted with appropriate diluent and analyzed by HPLC, to determine the solubility of diclofenac sodium in aqueous solutions containing different concentrations of SPC and urea. The results are presented in Table1.

solubility: 19.7 mg/mL
Structure (SMILES): O=C(O)Cc1ccccc1Nc1c(Cl)cccc1Cl [diclofenac sodium]
